Consider four molecules from patent US5571804A, “Cephalosporin antibiotics” (priority 1993, dated 1996).

The subject of data set [1] is Staphylococcus aureus 241. Description: MIC, two-fold agar dilution. It counts as cell-based. Conditions: Muller-Hinton agar, 37° C., 20 hours. Background: Agar dilution tests growth on a series of plates holding different concentrations.
The test system of data set [2] is Pseudomonas aeruginosa 1912E. Kind of data set: MIC, two-fold agar dilution. The data set is classed as cell-based. Conditions: Muller-Hinton agar, 37° C., 20 hours.
The test system of data set [3] is Citrobacter diversus 2046E. Description: MIC, two-fold agar dilution. Conditions: Muller-Hinton agar, 37° C., 20 hours. The data set is classed as cell-based.
Data set [4] deals with Serratia marcescens 1826E. Kind of data set: MIC, two-fold agar dilution. The data set is classed as cell-based. Conditions: Muller-Hinton agar, 37° C., 20 hours.
In data set [5] the test system is Salmonella typhimurium 14028A. Description: MIC, two-fold agar dilution. The data set is classed as cell-based. Conditions: Muller-Hinton agar, 37° C., 20 hours.
Data set [6] concerns Klebsiella aerogenes K1 + 1082E. Description: MIC, two-fold agar dilution. It counts as cell-based. Conditions: Muller-Hinton agar, 37° C., 20 hours.
Data set [7] concerns Pseudomonas aeruginosa 6065. Kind of data set: MIC, two-fold agar dilution. It counts as cell-based. Conditions: Muller-Hinton agar, 37° C., 20 hours.
Data set [8] can be described thus: pharmakinetic variables in SD rats. Conditions: rat, in vivo, iv, 20 mg/kg. As to the method: The pharmakinetic variables were determined using SD rats (.male.) of a body weight of 230±10g as follows. The "S" compound of each of the Examples was injected to femoral vein of 4-5 rats by 20mg/Kg and then blood was collected from femoral artery in 1, 2.5, 5, 10, 20, 40, 60 and 120 min.

Data set [9] concerns Staphylococcus aureus giorgio. Kind of data set: MIC, two-fold agar dilution. The data set is classed as cell-based. Conditions: Muller-Hinton agar, 37° C., 20 hours.
Data set [10] deals with Streptococcus laecalis 29212A. Kind of data set: MIC, two-fold agar dilution. It counts as cell-based. Conditions: Muller-Hinton agar, 37° C., 20 hours.
Data set [11] relates to Pseudomonas aeruginosa 10145. Kind of data set: MIC, two-fold agar dilution. It counts as cell-based. Conditions: Muller-Hinton agar, 37° C., 20 hours.
Data set [12] relates to Staphylococcus aureus 6538P. Description: MIC, two-fold agar dilution. It counts as cell-based. Conditions: Muller-Hinton agar, 37° C., 20 hours.
In data set [13] the test system is Staphylococcus epidermidis 887E. Description: MIC, two-fold agar dilution. It counts as cell-based. Conditions: Muller-Hinton agar, 37° C., 20 hours.
The subject of data set [14] is Staphylococcus aureus 77. Description: MIC, two-fold agar dilution. It counts as cell-based. Conditions: Muller-Hinton agar, 37° C., 20 hours.
The test system of data set [15] is Proteus vularis 6059A. Description: MIC, two-fold agar dilution. It counts as cell-based. Conditions: Muller-Hinton agar, 37° C., 20 hours.
Data set [16] concerns E. coli 10536. Description: MIC, two-fold agar dilution. The data set is classed as cell-based. Conditions: Muller-Hinton agar, 37° C., 20 hours.
For data set [17], the system named is Acinetobacter calcoaceticus 15473A. Description: MIC, two-fold agar dilution. It counts as cell-based. Conditions: Muller-Hinton agar, 37° C., 20 hours.
Data set [18] relates to E. coli 3190Y. Description: MIC, two-fold agar dilution. The data set is classed as cell-based. Conditions: Muller-Hinton agar, 37° C., 20 hours.
Data set [19] deals with Klebsiella aerogenes SHV-1 1976E. Kind of data set: MIC, two-fold agar dilution. The data set is classed as cell-based. Conditions: Muller-Hinton agar, 37° C., 20 hours.
Data set [20] deals with E. coli TEM5 3739E. Kind of data set: MIC, two-fold agar dilution. The data set is classed as cell-based. Conditions: Muller-Hinton agar, 37° C., 20 hours.
The test system of data set [21] is E. coli TEM7 3457E. Kind of data set: MIC, two-fold agar dilution. It counts as cell-based. Conditions: Muller-Hinton agar, 37° C., 20 hours.
The test system of data set [22] is E. coli TEM3 3455E. Description: MIC, two-fold agar dilution. It counts as cell-based. Conditions: Muller-Hinton agar, 37° C., 20 hours.
The subject of data set [23] is E. coli 851E. Kind of data set: MIC, two-fold agar dilution. Conditions: Muller-Hinton agar, 37° C., 20 hours. The data set is classed as cell-based.
The subject of data set [24] is Enterobacter cloacae IND + VE 1194E. Kind of data set: MIC, two-fold agar dilution. The data set is classed as cell-based. Conditions: Muller-Hinton agar, 37° C., 20 hours.
Data set [25] has as its system E. coli TEM9 2639E. Description: MIC, two-fold agar dilution. The data set is classed as cell-based. Conditions: Muller-Hinton agar, 37° C., 20 hours.
Data set [26] has as its system E. coli TEM1 1193E. Kind of data set: MIC, two-fold agar dilution. Conditions: Muller-Hinton agar, 37° C., 20 hours. It counts as cell-based.
Data set [27] deals with Enterobacter cloacae P99. Kind of data set: MIC, two-fold agar dilution. The data set is classed as cell-based. Conditions: Muller-Hinton agar, 37° C., 20 hours.

What is called AUC is concentration integrated over time. Low values mean low exposure, high ones high exposure. By half-life is commonly meant how long it takes for the measured level to halve.

Turning to `CC(C)(O/N=C(\C(=O)N[C@@H]1C(=O)N2C(C(=O)[O-])=C(C[n+]3ccccc3)CS[C@H]12)c1csc(N)n1)C(=O)O` [Ceftazidime, reference compound], the “minimal inhibitory concentration (MIC)” value in data set [1] was above 128; in [2] it was 1; in data set [3] it was 0.5; in data set [4] it was 0.25; in [5] it was 0.25; in data set [6] it was 0.25. The “minimal inhibitory concentration (MIC)” value in [7] is given as 16; in [9], 4; in [10] it was above 128; in [11], 2; in data set [12], 16; in data set [13] it was above 128. For the same molecule, the “minimal inhibitory concentration (MIC)” value is reported as 32 in data set [14]; 0.063 in data set [15]; 0.13 in [16]; 2 in data set [17]; 0.063 in data set [18]. In addition, the area under the curve (AUC) at 2 h in data set [8] was 31100 ng·h/mL.
For `Nc1nc(/C(=N/O[C@@H](C(=O)O)c2ccc(O)c(O)c2)C(=O)N[C@@H]2C(=O)N3C(C(=O)O)=C(CSc4nc(N)c5c(n4)CCC5)CS[C@H]23)cs1` [Compound I-4R, 7-[(Z)-2-(aminothiazol-4-yl)-2-(α-carboxyl-3,4-dihydroxybenzyioxyimino)acetamido]-3-(4-amino-5,6-cyclopentapyrimidine-2-yl)thiomethyl-3-cephem-4-carboxylate], the “minimal inhibitory concentration (MIC)” value is 0.5 in [19]; 128 in [1]; 0.25 in data set [20]; 2 in data set [3]; 2 in data set [4]; 0.063 in data set [21]. For the same molecule, the “minimal inhibitory concentration (MIC)” value was 0.13 in [5]; 1 in data set [6]; 8 in data set [7]; 2 in data set [9]; 0.25 in data set [22]; 16 in data set [10]. The “minimal inhibitory concentration (MIC)” value in data set [11] is listed as 2; in data set [12], 2; in [13] it was 32; in [23], 0.13; in data set [24] it was 32; in data set [25] it was 0.5. The “minimal inhibitory concentration (MIC)” value in [14] is 32; in [15], 0.5; in data set [16], 0.063; in data set [17], 1; in [18] it was 0.25; in [26], 0.5. The “minimal inhibitory concentration (MIC)” value in data set [27] worked out at 32.
Regarding `Nc1cc(SCC2=C(C(=O)O)N3C(=O)[C@@H](NC(=O)/C(=N\O[C@@H](C(=O)O)c4ccc(O)c(O)c4)c4csc(N)n4)[C@H]3SC2)nc(N)n1` [Compound I-6R, 7-[(Z)-2-(aminothiazol-4-yl)-2-(α-carboxy-3,4-dihydroxybenzyloxyimino)acetamido]-3-(2,6-diamino-pyrimidine-4-yl)thiomethyl-3-cephem-4-carboxylate], the “minimal inhibitory concentration (MIC)” value in data set [19] is 0.25; in [1] it was 64; in data set [20] it was 0.063; in data set [2] it was 0.25; in data set [3], 0.13; in data set [4] it was 0.5. Also, the “minimal inhibitory concentration (MIC)” value amounted to 0.016 in [21]; 0.13 in data set [5]; 0.25 in data set [6]; 1 in data set [7]; 1 in [9]; 0.031 in data set [22]. Moreover, the “minimal inhibitory concentration (MIC)” value in [10] was found to be 4; in data set [11], 0.25; in data set [12], 1; in [13], 32; in data set [23], 0.063; in [24] it was 4. Further, the “minimal inhibitory concentration (MIC)” value was 0.25 in [25]; 16 in data set [14]; 0.25 in data set [15]; 0.016 in data set [16]; 0.25 in [17]; 0.063 in data set [18]. Moreover, the results for the “minimal inhibitory concentration (MIC)” value in [26] and in data set [27] were 0.063 and 8, respectively.
Take `Nc1cc(SCC2=C(C(=O)O)N3C(=O)[C@@H](NC(=O)/C(=N\O[C@H](C(=O)O)c4ccc(O)c(O)c4)c4csc(N)n4)[C@H]3SC2)nc(N)n1` [Compound I-6S, 7-[(Z)-2-(aminothiazol-4-yl)-2-(α-carboxy-3,4-dihydroxybenzyloxyimino)acetamido]-3-(2,6-diamino-pyrimidine-4-yl)thiomethyl-3-cephem-4-carboxylate]: the “minimal inhibitory concentration (MIC)” value in data set [19] is recorded as 0.13; in data set [1] it was 64; in data set [20], 0.063; in [3], 0.063; in data set [4], 0.13; in data set [21], at most 0.008. The “minimal inhibitory concentration (MIC)” value in data set [5] was 0.016; in data set [6], 0.031; in data set [7] it was 0.25; in data set [9], 1; in data set [22], 0.016; in data set [10], 2. Besides, the “minimal inhibitory concentration (MIC)” value came to 0.25 in data set [11]; 1 in data set [12]; 32 in data set [13]; 0.031 in data set [23]; 2 in [24]; 0.13 in [25]. The “minimal inhibitory concentration (MIC)” value in [14] is 8; in data set [15], 0.13; in [16] it was at most 0.008; in [17], 0.13; in data set [18], 0.031; in data set [26], 0.031. The “minimal inhibitory concentration (MIC)” value in data set [27] came to 8. The molecule further had an exposure (AUC) at 2 h in [8] of 59800 ng·h/mL. Also, the half-life in data set [8] is 1.03 h.
